Measured values reported in PubChem BioAssay (NCI).
Several values for one entry are separate records, joined by “and”; a condition that tells them apart may be missing. Equal values may be shown once.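 Method: 48-hour compound exposure of cells in 96-well plates, five concentrations, linear interpolation of endpoints. GI50: concentration for 50% inhibition of growth. TGI is the concentration that stops growth completely.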

How the values were obtained:
Test in all cases: NCI-60 cell line screen, 48 h
HCC-2998 colon = system: HCC-2998 colon
HCT-116 colon = system: HCT-116 colon
MALME-3M melanoma = system: MALME-3M melanoma
DMS 114 small cell lung = system: DMS 114 small cell lung
SNB-78 CNS = system: SNB-78 CNS
M19-MEL melanoma = system: M19-MEL melanoma
DLD-1 colon = system: DLD-1 colon
UACC-257 melanoma = system: UACC-257 melanoma
HOP-18 NSCLC = system: HOP-18 NSCLC
NCI-H522 lung = system: NCI-H522 lung
HCT-15 colon = system: HCT-15 colon
KM20L2 colon = system: KM20L2 colon
DMS 273 small cell lung = system: DMS 273 small cell lung
SR leukemia = system: SR leukemia
BT-549 breast = system: BT-549 breast
MDA-MB-231 breast = system: MDA-MB-231 breast

Structure (SMILES)	TGI (HCC-2998 colon)	TGI (HCT-116 colon)	TGI (MALME-3M melanoma)	TGI (DMS 114 small cell lung)	TGI (SNB-78 CNS)	TGI (M19-MEL melanoma)	TGI (DLD-1 colon)	TGI (UACC-257 melanoma)	TGI (HOP-18 NSCLC)	TGI (NCI-H522 lung)	TGI (HCT-15 colon)	TGI (KM20L2 colon)	TGI (DMS 273 small cell lung)	TGI (SR leukemia)	GI50 (HCC-2998 colon)	TGI (BT-549 breast)	TGI (MDA-MB-231 breast)
O=C(CSc1nnc(Cc2ccccc2)o1)Nc1ccc(Cl)cc1	> 100 µM	> 100 µM	> 100 µM	> 100 µM	> 100 µM	> 100 µM	> 100 µM	> 100 µM	> 100 µM	> 100 µM	> 100 µM	> 100 µM	> 100 µM				
O=c1ccc2ccccc2o1	> 100 µM	> 100 µM	> 100 µM	> 100 µM	> 100 µM	> 100 µM	> 100 µM	> 100 µM	> 100 µM	> 100 µM	> 100 µM	> 100 µM					
COC(=O)[C@@H]1c2cc3c(c(O)c2[C@@H](OC)C[C@@]1(C)O)C(=O)c1c(O)cc2c(c1C3=O)OC1O[C@@]2(C)[C@H](O)[C@@H](N(C)C)[C@@H]1O	1.37 µM	1.58 µM	2.13 µM	0.633 µM	4.54 µM	0.88 µM	8.83 µM	1.21 µM	1.34 µM	1.9 µM	2.23 µM	0.794 µM	0.779 µM				
Cc1cc2c(c3oc(C(O)(CO)C4CO4)cc(=O)c13)C(=O)c1c(O)cccc1C2=O (stereo not drawn)	0.00727 µM and 0.00365 µM and 0.0112 µM		0.00527 µM and 0.00231 µM and 0.0152 µM		> 100 µM			0.0404 µM	0.0358 µM	0.00323 µM	0.00152 µM			0.00227 µM	0.169 nM	0.000438 µM	0.00843 µM and 0.00411 µM
CCOC(OCC)C(CC)[Se]c1ccccc1[N+](=O)[O-] (stereo not drawn)	14.3 µM	30.2 µM	> 100 µM		> 100 µM	> 100 µM	> 90.2 µM	> 94.6 µM	> 100 µM	4.45 µM	22.2 µM	6.36 µM	11.3 µM	> 40.1 µM			> 100 µM
COC(=O)C(NC(=O)CNC(=O)CSc1nnc(COc2ccc(Cl)cc2)n1-c1ccccc1)C(C)C (stereo not drawn)	34 µM	31.4 µM	35.5 µM					34.6 µM		19.3 µM	48.9 µM			52.3 µM		34 µM	36.5 µM
O=C(O)c1c(-c2c3ccc(=O)cc-3oc3cc(O)ccc23)cc2ccccc2c1-c1ccccc1	> 68.4 µM	> 100 µM	> 100 µM					> 100 µM		> 100 µM	> 100 µM			> 100 µM		> 100 µM	> 100 µM
COc1ccc(/C(Cl)=C(\C=O)c2ccc(F)cc2)cc1		20 µM	48 µM	45.1 µM	53.1 µM	79.4 µM	50.3 µM		51.7 µM	24.8 µM	31.2 µM	20.5 µM	56.4 µM				
CN1N=C2c3ccccc3CC[C@H]2C1c1ccccc1 (stereo partly drawn)	> 100 µM	> 100 µM	72.9 µM	70.8 µM	> 100 µM	66.1 µM	> 100 µM	70.3 µM	> 100 µM	94.3 µM	> 100 µM	> 100 µM	> 100 µM	> 100 µM			
O=[N+]([O-])c1ccc(NC2OCC(O)C(O)C2O)cc1 (stereo not drawn)	> 100 µM		> 100 µM	> 100 µM	> 100 µM		> 100 µM	> 100 µM		> 100 µM	> 100 µM	> 100 µM	> 100 µM	> 100 µM			
O=C(CCCCCCCCC(=O)NN1C(=O)/C(=C\c2ccc(O)c(O)c2)SC1c1c(O)ccc2ccccc12)NN1C(=O)C(=Cc2ccc(O)c(O)c2)SC1c1c(O)ccc2ccccc12 (stereo not drawn)	> 100 µM	> 100 µM	74 µM					> 92.7 µM		30.7 µM	> 100 µM			> 30.8 µM		> 100 µM	> 87.7 µM
NC(=O)N/N=C(\Cc1nc2ccc(C(=O)c3ccccc3)cc2[nH]c1=O)C(=O)Nc1ccc(Br)cc1	> 100 µM	> 100 µM	> 100 µM	> 100 µM	> 100 µM	> 100 µM	> 100 µM	> 100 µM	> 100 µM	> 100 µM	> 100 µM	> 100 µM	> 100 µM	> 100 µM			
COc1cccc(NCC(=O)Nn2c(-c3ccccc3)nc3ccccc3c2=O)c1	> 100 µM	> 100 µM	> 100 µM					> 100 µM		> 100 µM	> 100 µM			> 100 µM		> 100 µM	> 100 µM
O=c1c2cc(Br)ccc2oc2nc3n(c(=O)c12)CCCS3	> 100 µM	> 100 µM	> 100 µM					> 100 µM		> 100 µM	> 100 µM			> 100 µM		> 100 µM	> 100 µM
